In PubChem BioAssay AID248 (DTP/NCI, 2004):
Several values for one entry are separate records, joined by “and”; a condition that tells them apart may be missing. Equal entries are not always repeated. Toxic doses and inconclusive results are not listed. Cut-off read from the data, not from the text of the source: active = T/C of 150% or more; inactive = T/C below 125%.

Test system: L1210 leukemia ip in BDF1 mice, survival T/C
Assay: NCI In Vivo Anticancer Drug Screen. Data for tumor model L1210 Leukemia (intraperitoneal) in B6D2F1 (BDF1) mice
Settings: endpoint: mean survival time, higher = longer survival
Summary of the method: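 Each compound was tested against a transplantable tumor grown in mice. The endpoint was survival, with treated animals benchmarked against vehicle controls as a simple ratio.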

[1] = dose: 100.0 mg/kg/injection, schedule: Q01DX001 (ip), vehicle: saline
[2] = dose: 200.0 mg/kg/injection, schedule: Q01DX001 (ip), vehicle: saline
[3] = dose: 400.0 mg/kg/injection, schedule: Q01DX001 (ip), vehicle: saline
[4] = dose: 100.0 mg/kg/injection, schedule: Q04DX002 (ip), vehicle: Klucel (hydroxypropylcellulose) (HPC)
[5] = dose: 200.0 mg/kg/injection, schedule: Q04DX002 (ip), vehicle: Klucel (hydroxypropylcellulose) (HPC)
[6] = dose: 100.0 mg/kg/injection, schedule: Q04DX002 (ip), vehicle: saline
[7] = dose: 200.0 mg/kg/injection, schedule: Q04DX002 (ip), vehicle: saline
[8] = dose: 50.0 mg/kg/injection, schedule: Q01DX009 (ip), vehicle: Klucel (hydroxypropylcellulose) (HPC)
[9] = dose: 100.0 mg/kg/injection, schedule: Q04DX003 (ip), vehicle: Klucel (hydroxypropylcellulose) (HPC)
[10] = dose: 200.0 mg/kg/injection, schedule: Q01DX009 (ip), vehicle: Klucel (hydroxypropylcellulose) (HPC)
[11] = dose: 200.0 mg/kg/injection, schedule: Q04DX003 (ip), vehicle: Klucel (hydroxypropylcellulose) (HPC)
[12] = dose: 400.0 mg/kg/injection, schedule: Q04DX003 (ip), vehicle: Klucel (hydroxypropylcellulose) (HPC)
[13] = dose: 100.0 mg/kg/injection, schedule: Q01DX009 (ip), vehicle: Klucel (hydroxypropylcellulose) (HPC)
[14] = dose: 400.0 mg/kg/injection, schedule: Q01DX009 (ip), vehicle: Klucel (hydroxypropylcellulose) (HPC)
[15] = dose: 100.0 mg/kg/injection, schedule: Q01DX001 (ip), vehicle: Klucel (hydroxypropylcellulose) (HPC)
[16] = dose: 200.0 mg/kg/injection, schedule: Q01DX001 (ip), vehicle: Klucel (hydroxypropylcellulose) (HPC)
[17] = dose: 400.0 mg/kg/injection, schedule: Q01DX001 (ip), vehicle: Klucel (hydroxypropylcellulose) (HPC)
[18] = dose: 100.0 mg/kg/injection, schedule: Q04DX002 (ip), vehicle: other
[19] = dose: 100.0 mg/kg/injection, schedule: Q04DX003 (ip), vehicle: saline
[20] = dose: 200.0 mg/kg/injection, schedule: Q04DX003 (ip), vehicle: saline
[21] = dose: 400.0 mg/kg/injection, schedule: Q04DX003 (ip), vehicle: saline

Measured: T/C

O=C1Nc2ccccc2CS1
inactive: [1] 100 % of control | [2] 97 % of control | [3] 94 % of control

CCCCCCCCCCC(CCCCCC)C(=O)O (centres undefined)
inactive: dose: 100.0 mg/kg/injection, schedule: Q01DX001 (ip), vehicle: saline with Tween-80 95 % of control | dose: 200.0 mg/kg/injection, schedule: Q01DX001 (ip), vehicle: saline with Tween-80 96 % of control | dose: 400.0 mg/kg/injection, schedule: Q01DX001 (ip), vehicle: saline with Tween-80 90 % of control

CCn1cc(C(=O)O)c(=O)c2c3ccccc3ccc21
inactive: [4] 96 % of control | [5] 93 % of control | dose: 400.0 mg/kg/injection, schedule: Q04DX002 (ip), vehicle: Klucel (hydroxypropylcellulose) (HPC) 100 % of control

CN(C)/C=C1\CCOC1=O
inactive: [6] 101 % of control | [7] 119 % of control

CCN(CC)CCCCCOC(=O)c1ccccc1
inactive: [8] 92 % of control | [9] 97 % of control | [10] 96 % of control | [11] 107 % of control

O=C1OC2C3c4ccccc4C(c4c3cc(F)c3ccccc43)C2O1 (centres undefined)
inactive: [9] 100 % of control | [11] 97 % of control | [12] 95 % of control

O=C(Nc1cccc([N+](=O)[O-])c1)Nc1ccccc1C(F)(F)F
inactive: [13] 94 % of control | [10] 91 % of control | [14] 93 % of control

Cc1ccn(-c2ccccc2)n1
inactive: dose: 100.0 mg/kg/injection, schedule: Q01DX009 (ip), vehicle: other 100 % of control | dose: 100.0 mg/kg/injection, schedule: Q04DX003 (ip), vehicle: other 101 % of control | dose: 200.0 mg/kg/injection, schedule: Q01DX009 (ip), vehicle: other 90 % of control | dose: 200.0 mg/kg/injection, schedule: Q04DX003 (ip), vehicle: other 104 % of control | dose: 400.0 mg/kg/injection, schedule: Q01DX009 (ip), vehicle: other 107 % of control | dose: 400.0 mg/kg/injection, schedule: Q04DX003 (ip), vehicle: other 104 % of control

CN(C)S(=O)(=O)c1ccccc1C(O)(c1ccccc1)c1ccccc1
inactive: dose: 100.0 mg/kg/injection, schedule: Q01DX001 (ip), vehicle: carboxymethylcellulose (CMC) 95 % of control | dose: 200.0 mg/kg/injection, schedule: Q01DX001 (ip), vehicle: carboxymethylcellulose (CMC) 93 % of control | dose: 400.0 mg/kg/injection, schedule: Q01DX001 (ip), vehicle: carboxymethylcellulose (CMC) 98 % of control

NC(CCl)=NCCN1CCNC1=O
inactive: [6] 107 % of control | [7] 104 % of control | dose: 400.0 mg/kg/injection, schedule: Q04DX002 (ip), vehicle: saline 96 % of control

O=c1ccn(C2SC(CO)C(O)C2O)c(=O)[nH]1 (centres undefined)
inactive: dose: 50.0 mg/kg/injection, schedule: Q01DX001 (ip), vehicle: saline 108 % of control | [1] 100 % of control | [2] 88 % of control | [3] 108 % of control

O=[N+]([O-])/C=C\C(Cl)(Cl)Cl
inactive: dose: 6.25 mg/kg/injection, schedule: Q01DX009 (ip), vehicle: saline with Tween-80 96 % of control | dose: 12.5 mg/kg/injection, schedule: Q01DX009 (ip), vehicle: saline with Tween-80 87 % of control

C/C(=N/O)c1ccncc1
inactive: [9] 100 % of control | [11] 95 % of control | [12] 95 % of control

COc1ccc2ccccc2c1C1NC(=O)c2ccccc2N1 (centres undefined)
inactive: [8] 97 % of control | [13] 97 % of control | dose: 150.0 mg/kg/injection, schedule: Q01DX009 (ip), vehicle: Klucel (hydroxypropylcellulose) (HPC) 92 % of control

CCSC(=O)N1C=Cc2ccccc2C1C#N (centres undefined)
inactive: [15] 95 % of control | [13] 95 % of control | [16] 90 % of control | [10] 95 % of control | [17] 101 % of control | [14] 108 % of control

COc1ccc(C(=O)NC(=S)Nc2cccc(Cl)c2)cc1
inactive: [13] 91 % of control | [9] 94 % of control | [10] 98 % of control | [11] 91 % of control | [14] 87 % of control | [12] 93 % of control

CCOc1ccc([N+](=O)[O-])cc1CNCCCl
inactive: dose: 25.0 mg/kg/injection, schedule: Q04DX003 (ip), vehicle: Klucel (hydroxypropylcellulose) (HPC) 102 % of control | dose: 50.0 mg/kg/injection, schedule: Q04DX003 (ip), vehicle: Klucel (hydroxypropylcellulose) (HPC) 98 % of control | [9] 98 % of control and 104 % of control

COC(=O)/C=C(\C)Sc1ccc(Cl)cc1
inactive: [18] 91 % of control | dose: 200.0 mg/kg/injection, schedule: Q04DX002 (ip), vehicle: other 98 % of control | dose: 400.0 mg/kg/injection, schedule: Q04DX002 (ip), vehicle: other 102 % of control

CCCCCCCCCCCn1cnc2c(=S)nc[nH]c21
inactive: dose: 12.5 mg/kg/injection, schedule: Q01DX005 (ip), vehicle: other 103 % of control | dose: 25.0 mg/kg/injection, schedule: Q01DX005 (ip), vehicle: other 97 % of control | dose: 50.0 mg/kg/injection, schedule: Q01DX005 (ip), vehicle: other 98 % of control | dose: 100.0 mg/kg/injection, schedule: Q01DX005 (ip), vehicle: other 98 % of control | dose: 200.0 mg/kg/injection, schedule: Q01DX005 (ip), vehicle: other 97 % of control

Cc1ncc(CO)c(Cc2ccccc2N(C)C)c1O
inactive: dose: 100.0 mg/kg/injection, schedule: Q04DX002 (ip), vehicle: saline with Tween-80 92 % of control | dose: 200.0 mg/kg/injection, schedule: Q04DX002 (ip), vehicle: saline with Tween-80 95 % of control

C1=Nc2c(ccc3ccccc23)CS1
inactive: [18] 93 % of control

C/C(=N\N(C)C)C(=O)OC(C)(C)C
inactive: [19] 107 % of control | [20] 98 % of control | [21] 96 % of control

O=C(/C=C/c1ccccc1)N1CCCCC1
inactive: dose: 100.0 mg/kg/injection, schedule: Q01DX009 (ip), vehicle: saline with Tween-80 93 % of control | [4] 108 % of control | dose: 200.0 mg/kg/injection, schedule: Q01DX009 (ip), vehicle: saline with Tween-80 95 % of control | [5] 101 % of control | dose: 400.0 mg/kg/injection, schedule: Q01DX009 (ip), vehicle: saline with Tween-80 102 % of control

COc1cc(C=C(C#N)C#N)ccc1OC(=O)c1cc(OC)c(OC)c(OC)c1
inactive: dose: 100.0 mg/kg/injection, schedule: Q04DX002 (ip), vehicle: gum acacia 98 % of control | dose: 200.0 mg/kg/injection, schedule: Q04DX002 (ip), vehicle: gum acacia 92 % of control | dose: 400.0 mg/kg/injection, schedule: Q04DX002 (ip), vehicle: gum acacia 92 % of control

O=Cc1ccc(OCc2cccc([N+](=O)[O-])c2)cc1
inactive: [15] 113 % of control | [16] 100 % of control | [17] 87 % of control

Cc1cc(C)c(-c2c(C)cc(C)c(N)c2C)c(C)c1N
inactive: dose: 12.5 mg/kg/injection, schedule: Q01DX009 (ip), vehicle: Klucel (hydroxypropylcellulose) (HPC) 90 % of control | dose: 25.0 mg/kg/injection, schedule: Q01DX009 (ip), vehicle: Klucel (hydroxypropylcellulose) (HPC) 93 % of control | [8] 103 % of control | [9] 109 % of control | [11] 95 % of control | [12] 97 % of control

CNC(=O)C1C2C=CC(CC2)C1C(=O)NC (centres undefined)
inactive: dose: 100.0 mg/kg/injection, schedule: Q04DX003 (ip), vehicle: saline with Tween-80 108 % of control | dose: 200.0 mg/kg/injection, schedule: Q04DX003 (ip), vehicle: saline with Tween-80 100 % of control | dose: 400.0 mg/kg/injection, schedule: Q04DX003 (ip), vehicle: saline with Tween-80 100 % of control

N#Cc1ncc(-c2ccc(Cl)cc2)nc1Cl
inactive: dose: 100.0 mg/kg/injection, schedule: Q01DX009 (ip), vehicle: saline 105 % of control | [19] 91 % of control | dose: 200.0 mg/kg/injection, schedule: Q01DX009 (ip), vehicle: saline 113 % of control | [20] 93 % of control | [21] 95 % of control
